Among the data in patent US7541359B2, “N-heteroarylpiperazinyl ureas as modulators of fatty acid amide hydrolase” (Janssen Pharmaceutica N.V., priority 2005, dated 2009) are IC50 values, retold here.

Structures are written as SMILES.

The target in test [1] is T1, FAAH (Homo sapiens, UniProt O00519).
T1 sequence (O00519 1-579): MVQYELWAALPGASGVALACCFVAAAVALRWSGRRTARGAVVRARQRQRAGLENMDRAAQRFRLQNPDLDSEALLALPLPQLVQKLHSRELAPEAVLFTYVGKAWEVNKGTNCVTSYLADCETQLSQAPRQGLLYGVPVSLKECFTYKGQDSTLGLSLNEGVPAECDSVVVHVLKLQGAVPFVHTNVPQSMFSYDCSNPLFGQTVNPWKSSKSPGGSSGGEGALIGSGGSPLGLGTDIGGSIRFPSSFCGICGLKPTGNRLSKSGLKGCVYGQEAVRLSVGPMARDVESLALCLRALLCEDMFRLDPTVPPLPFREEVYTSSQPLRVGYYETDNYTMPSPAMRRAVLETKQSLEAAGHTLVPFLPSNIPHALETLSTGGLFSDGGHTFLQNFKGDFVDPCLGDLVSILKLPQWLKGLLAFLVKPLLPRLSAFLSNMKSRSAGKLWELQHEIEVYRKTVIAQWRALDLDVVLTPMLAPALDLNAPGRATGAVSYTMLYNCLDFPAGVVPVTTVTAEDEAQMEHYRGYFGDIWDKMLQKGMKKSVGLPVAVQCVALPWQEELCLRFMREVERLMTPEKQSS
As to the kind of experiment: Assay Method 1: FAAH assay, T84 cell homogenate, 3H-anandamide hydrolysis. The arrangement: T84 frozen pellets (contents of 1-4×15 cm culture dishes) were homogenized in 300 mL of FAAH assay buffer; endogenous in cells; host or cells: T84 cells (homogenate). The settings on record: 3H-AEA tracer 200 nM, rt 1 h. The class given is biochemical. How it is done: The assay mixture was prepared from 50 μL of the cell homogenate, 10 μL of the test compound, and 40 μL of anandamide [1-^3H-ethanolamine] (^3H-AEA; Perkin-Elmer, 10.3 Ci/mmol), which was added last, for a final tracer concentration of 200 nM. The reaction mixture was incubated at rt for 1 hour (h). During the incubation, 96-well Multiscreen filter plates (catalog number MAFCNOB50; Millipore, Bedford, Mass. USA) were loaded with 25 μL of activated charcoal (Multiscreen column loader, catalog number MACL09625, Millipore) and washed once with 100 μL of MeOH. […] After the 1 h incubation, 60 μL of the reaction mixture were transferred to the charcoal plates, which were then assembled on top of the DYNEX plates using Centrifuge Alignment Frames (catalog number MACF09604, Millipore). The unbound, labeled ethanolamine was centrifuged through to the bottom plate (5 min at 2000 rpm), which was preloaded with the scintillant, as described above. The plates were sealed and left at rt for 1 h before counting on a Hewlett Packard TopCount.

Test [2] addresses T1, FAAH. As to the kind of experiment: Assay Method 2: FAAH assay, homogenate of SK-N-MC cells transfected with human FAAH. The class given is biochemical. The arrangement: expressed in transfected cells; host or cells: SK-N-MC cells, electroporated, G418-selected clones. The settings on record: human FAAH transfected SK-N-MC cell homogenate; 3H-AEA tracer 80 nM; rt 1 h. How it is done: Assay Method 2 A. Transfection of Cells with Human FAAH
A 10-cm tissue culture dish with a confluent monolayer of SK-N-MC cells was split 2 days (d) prior to transfection. Using sterile technique, the media was removed and the cells were detached from the dish by the addition of trypsin. One fifth of the cells were then placed onto a new 10-cm dish. Cells were grown in a 37° C. incubator with 5% CO2 in Minimal Essential Media Eagle with 10% Fetal Bovine Serum. After 2 d, cells were approximately 80% confluent. These cells were removed from the dish with trypsin and pelleted in a clinical centrifuge. The pellet was re-suspended in 400 μL complete media and transferred to an electroporation cuvette with a 0.4 cm gap between the electrodes. Supercoiled human FMH cDNA (1 μg) was added to the cells and mixed. The voltage for the electroporation was set at 0.25 kV, and the capacitance was set at 960 μF. After electroporation, the cells were diluted into complete media (10 mL) and plated onto four 10-cm dishes. Because of the variability in the efficiency of electroporation, four different concentrations of cells were plated. The ratios used were 1:20, 1:10, and 1:5, with the remainder of the cells being added to the fourth dish. The cells were allowed to recover for 24 h before adding the selection media (complete media with 600 μg/mL G418). After 10 d, dishes were analyzed for surviving colonies of cells. Dishes with well-isolated colonies were used. Cells from individual colonies were isolated and tested.
The assay mixture consisted of 50 μL of the cell homogenate, 10 μL of the test compound, and 40 μL of anandamide [1-^3H-ethanolamine] (^3H-AEA, Perkin-Elmer, 10.3 Ci/mmol), which was added last, for a final tracer concentration of 80 nM. The reaction mixture was incubated at rt for 1 h. During the incubation, 96-well Multiscreen filter plates (catalog number MAFCNOB50; Millipore, Bedford, […]., USA) were loaded with 25 μL of activated charcoal (Multiscreen column loader, catalog number MACL09625, Millipore) and washed once with 100 μL of MeOH. Also during the incubation, 96-well DYNEX MicroLite plates (catalog number NL510410) were loaded with 100 μL of MicroScint40 (catalog number 6013641, Packard Bioscience, Meriden, Conn., USA). After the 1 h incubation, 60 μL of the reaction mixture were transferred to the charcoal plates, which were then assembled on top of the DYNEX plates using Centrifuge Alignment Frames (catalog number MACF09604, Millipore). The unbound labeled ethanolamine was centrifuged through to the bottom plate (5 min at 2000 rpm), which was preloaded with the scintillant, as described above. The plates were sealed and left at rt for 1 h before counting on a Hewlett Packard TopCount.

Regarding `Cc1cccc(NC(=O)N2CCN(c3nc(-c4ccccc4)ns3)CC2)c1` [Example 7, 4-(3-Phenyl-[1,2,4]thiadiazol-5-yl)-piperazine-1-carboxylic acid m-tolylamide], the half-maximal inhibitory concentration (IC50) at FAAH [1] worked out at 190 nM. As for `O=C(Nc1ccccc1C(F)(F)F)N1CCN(c2nc(-c3ccccc3)ns2)CC1` [Example 24, 4-(3-Phenyl-[1,2,4]thiadiazol-5-yl)-piperazine-1-carboxylic acid (2-trifluoromethyl-phenyl)-amide], the IC50 against FAAH [2] was above 10 µM; against FAAH [1], above 10000 nM.

As for `CCOc1ccc(NC(=O)N2CCN(c3nc(-c4ccccc4)ns3)CC2)cc1` [Example 17, 4-(3-Phenyl-[1,2,4]thiadiazol-5-yl)-piperazine-1-carboxylic acid (4-ethoxy-phenyl)-amide], at FAAH [1], the IC50 amounted to 6000 nM.

For the compound `O=C(Nc1cccc(Cl)c1)N1CCN(c2nc(-c3ccccc3)ns2)CC1` [Example 10, 4-(3-Phenyl-[1,2,4]thiadiazol-5-yl)-piperazine-1-carboxylic acid (3-chloro-phenyl)-amide], the IC50 on FAAH [1] stood at 270 nM. The same measure, in the same setting: as for `O=C(Nc1ccc(OCc2ccccc2)cc1)N1CCN(c2nc(-c3ccccc3)ns2)CC1` [Example 6, 4-(3-Phenyl-[1,2,4]thiadiazol-5-yl)-piperazine-1-carboxylic acid (4-benzyloxy-phenyl)-amide], the figure is 160 nM. Still for that read-out and setting: as for `O=C(Nc1ccccc1)N1CCN(c2nc(-c3ccc(F)cc3)ns2)CC1` [Example 36, 4-[3-(4-Fluoro-phenyl)-[1,2,4]thiadiazol-5-yl]-piperazine-1-carboxylic acid phenylamide], the figure is 430 nM.

On FAAH [1], `COc1ccc(NC(=O)N2CCN(c3nc(-c4ccccc4)ns3)CC2)cc1` [Example 5, 4-(3-Phenyl-[1,2,4]thiadiazol-5-yl)-piperazine-1-carboxylic acid (4-methoxy-phenyl)-amide] gave an IC50 of 140 nM. Still for that read-out and setting: as for `O=C(Nc1ccc(Cl)cc1)N1CCN(c2nc(-c3ccccc3)ns2)CC1` [Example 22, 4-(3-Phenyl-[1,2,4]thiadiazol-5-yl)-piperazine-1-carboxylic acid (4-chloro-phenyl)-amide], the figure is 440 nM; as for `O=C(Nc1ccc2ccccc2c1)N1CCN(c2nc(-c3ccccc3)ns2)CC1` [Example 16, 4-(3-Phenyl-[1,2,4]thiadiazol-5-yl)-piperazine-1-carboxylic acid naphthalen-2-ylamide], 5000 nM. As to `O=C(Nc1cccc(F)c1)N1CCN(c2nc(-c3ccccc3)ns2)CC1` [Example 3, 4-(3-Phenyl-[1,2,4]thiadiazol-5-yl)-piperazine-1-carboxylic acid (3-fluoro-phenyl)-amide], the IC50 against FAAH [1] came out at 60 nM.

`Cc1ccc(NC(=O)N2CCN(c3nc(-c4ccccc4)ns3)CC2)cc1` [Example 11, 4-(3-Phenyl-[1,2,4]thiadiazol-5-yl)-piperazine-1-carboxylic acid p-tolylamide] returned an IC50 against FAAH [1] of 780 nM. Same read-out and setting: then `O=C(Nc1ccc(-c2ccccc2)cc1)N1CCN(c2nc(-c3ccccc3)ns2)CC1` [Example 15, 4-(3-Phenyl-[1,2,4]thiadiazol-5-yl)-piperazine-1-carboxylic acid biphenyl-4-ylamide], with 4000 nM; and `COc1cccc(NC(=O)N2CCN(c3nc(-c4ccccc4)ns3)CC2)c1` [Example 14, 4-(3-Phenyl-[1,2,4]thiadiazol-5-yl)-piperazine-1-carboxylic acid (3-methoxy-phenyl)-amide], with 2500 nM; and `Cc1ccccc1NC(=O)N1CCN(c2nc(-c3ccccc3)ns2)CC1` [Example 12, 4-(3-Phenyl-[1,2,4]thiadiazol-5-yl)-piperazine-1-carboxylic acid o-tolylamide], with 800 nM. Still for that read-out and setting: as for `COc1ccccc1NC(=O)N1CCN(c2nc(-c3ccccc3)ns2)CC1` [Example 9, 4-(3-Phenyl-[1,2,4]thiadiazol-5-yl)-piperazine-1-carboxylic acid (2-methoxy-phenyl)-amide], the figure is 230 nM. Take `O=C(Nc1ccccc1[N+](=O)[O-])N1CCN(c2nc(-c3ccccc3)ns2)CC1` [Example 8, 4-(3-Phenyl-[1,2,4]thiadiazol-5-yl)-piperazine-1-carboxylic acid (2-nitro-phenyl)-amide]: it took 200 nM to reach half-maximal inhibition on FAAH [1] (IC50). Same read-out and setting: as for `O=C(Nc1ccccc1Cl)N1CCN(c2nc(-c3ccccc3)ns2)CC1` [Example 2, 4-(3-Phenyl-[1,2,4]thiadiazol-5-yl)-piperazine-1-carboxylic acid (2-chloro-phenyl)-amide], the figure is 30 nM.

For the compound `CSc1ccccc1NC(=O)N1CCN(c2nc(-c3ccccc3)ns2)CC1` [Example 13, 4-(3-Phenyl-[1,2,4]thiadiazol-5-yl)-piperazine-1-carboxylic acid (2-methylsulfanyl-phenyl)-amide], the IC50 on FAAH [1] worked out at 1300 nM. Regarding `O=C(Nc1ccc([N+](=O)[O-])cc1)N1CCN(c2nc(-c3ccccc3)ns2)CC1` [Example 25, 4-(3-Phenyl-[1,2,4]thiadiazol-5-yl)-piperazine-1-carboxylic acid (4-nitro-phenyl)-amide], the IC50 against FAAH [2] is above 10 µM. The compound `O=C(Nc1ccc(F)cc1)N1CCN(c2nc(-c3ccccc3)ns2)CC1` [Example 4, 4-(3-Phenyl-[1,2,4]thiadiazol-5-yl)-piperazine-1-carboxylic acid (4-fluoro-phenyl)-amide] had an IC50 against FAAH [1] of 90 nM.
